Measured values published in patent US20140249135A1, “PIM KINASE INHIBITORS AND METHODS OF THEIR USE” (NOVARTIS AG, priority 2007, published 2014).

What was measured:
HEL 92.1.7 cells = test: Cell proliferation assay (CellTiter-Glo), HEL 92.1.7; format: cell-based; conditions: Homo sapiens, read-out: EC50 (μM) HEL 92.1.7
Experimental: HEL 92.1.7 cells (ATTC No. TIB-180, an erythroleukemia line derived from malignant peripheral blood), MV4-11 cells (ATCC No. CRL-9591, a human acute monocytic leukemia line) and PC3 cells (ATCC No. CRL-1435, a human prostatic adenocarcinoma line) were cultured in RPMI1640 supplemented with 10% FBS, sodium pyruvate and antibiotics. Cells were plated in the same medium at a density of 1000 cells per well into 96 well tissue culture plates, with outside wells vacant, on the day of assay.
Test compounds supplied in DMSO were diluted into DMSO at 500 times the desired final concentrations before dilution into culture media to 2 times final concentrations. Equal volumes of 2× compounds were added to the cells in 96 well plates and incubated at 37° C. for 3 days.
After 3 days plates were equilibrated to room temperature and equal volume of CellTiter-Glow Reagent (Promega) was added to the culture wells. The plates were agitated briefly and luminescent signal was measured with luminometer. The percent inhibition of the signal seen in cells treated with DMSO alone vs. cells treated with control compound was calculated and used to determine EC50 values (i.e., the concentration of a test compound that is required to obtain 50% of the maximum effect in the cells) for tested compounds, as shown in Example 763.

Pim1 kinase = Pim1 kinase (Homo sapiens, UniProt P11309); test: Pim1 ATP depletion assay; format: biochemical; conditions: Pim1 ATP depletion assay; read-out: IC50 (μM) PIM1;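 further: Luciferase-luciferin luminescence readout of residual ATP after PIM1 transfers phosphate to a peptide substrate, 40 µM ATP added, reaction run to roughly half ATP consumption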
[1] = biological target: T1, human full length PKCE enzyme (Homo sapiens, UniProt Q02156); test: In vitro PKCE assay; format: biochemical; conditions: 10 nM enzyme, 40 uM peptide substrate, 20 uM ATP, KinaseGlo Plus readout; read-out: PKCε IC50
T1 construct: human full length PKCE enzyme purchased from InVitrogen; purchased InVitrogen
T1 sequence (Q02156 1-737): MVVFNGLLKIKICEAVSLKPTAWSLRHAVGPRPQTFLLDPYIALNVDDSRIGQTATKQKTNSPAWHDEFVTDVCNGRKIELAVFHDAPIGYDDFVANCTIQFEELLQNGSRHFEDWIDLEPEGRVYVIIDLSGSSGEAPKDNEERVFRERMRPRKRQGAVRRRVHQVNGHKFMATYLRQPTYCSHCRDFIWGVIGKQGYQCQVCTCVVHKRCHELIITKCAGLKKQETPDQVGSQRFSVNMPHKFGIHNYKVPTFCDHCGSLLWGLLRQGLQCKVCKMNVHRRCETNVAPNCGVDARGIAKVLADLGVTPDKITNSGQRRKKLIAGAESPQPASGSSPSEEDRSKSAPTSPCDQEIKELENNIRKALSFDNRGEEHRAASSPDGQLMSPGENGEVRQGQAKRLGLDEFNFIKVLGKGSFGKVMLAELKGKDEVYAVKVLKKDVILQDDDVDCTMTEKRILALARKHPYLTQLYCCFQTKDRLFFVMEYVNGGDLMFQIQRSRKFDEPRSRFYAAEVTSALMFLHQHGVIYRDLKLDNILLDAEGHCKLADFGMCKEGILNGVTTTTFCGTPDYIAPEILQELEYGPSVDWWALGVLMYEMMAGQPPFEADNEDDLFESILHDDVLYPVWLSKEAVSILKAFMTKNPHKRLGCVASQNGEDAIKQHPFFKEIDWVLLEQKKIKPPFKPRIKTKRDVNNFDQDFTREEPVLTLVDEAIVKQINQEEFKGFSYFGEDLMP

Pim3 kinase = Pim3 kinase (Homo sapiens, UniProt Q86V86); test: Pim3 ATP depletion assay; format: biochemical; conditions: read-out: IC50 (μM) PIM3
Pim2 kinase = Pim2 kinase (Homo sapiens, UniProt Q9P1W9); test: Pim2 ATP depletion assay; format: biochemical; conditions: read-out: IC50 (μM) PIM2;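 further: Luciferase-based luminescent readout of ATP remaining after PIM2 phosphorylates a BAD peptide, final 5 nM enzyme, 4 µM ATP, 10 µM peptide, 2.5% DMSO, run to roughly half ATP consumption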
Pim2 kinase, sequence (Q9P1W9 whole entry): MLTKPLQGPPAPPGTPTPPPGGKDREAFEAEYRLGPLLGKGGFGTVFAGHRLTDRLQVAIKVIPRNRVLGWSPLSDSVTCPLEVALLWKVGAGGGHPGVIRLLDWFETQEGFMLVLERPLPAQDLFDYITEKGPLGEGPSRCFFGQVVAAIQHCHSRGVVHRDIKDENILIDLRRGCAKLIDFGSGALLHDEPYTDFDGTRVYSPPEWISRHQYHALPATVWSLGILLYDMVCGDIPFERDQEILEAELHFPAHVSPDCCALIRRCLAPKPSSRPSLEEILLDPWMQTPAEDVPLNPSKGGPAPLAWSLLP

Pim1 kinase, sequence (P11309 whole entry): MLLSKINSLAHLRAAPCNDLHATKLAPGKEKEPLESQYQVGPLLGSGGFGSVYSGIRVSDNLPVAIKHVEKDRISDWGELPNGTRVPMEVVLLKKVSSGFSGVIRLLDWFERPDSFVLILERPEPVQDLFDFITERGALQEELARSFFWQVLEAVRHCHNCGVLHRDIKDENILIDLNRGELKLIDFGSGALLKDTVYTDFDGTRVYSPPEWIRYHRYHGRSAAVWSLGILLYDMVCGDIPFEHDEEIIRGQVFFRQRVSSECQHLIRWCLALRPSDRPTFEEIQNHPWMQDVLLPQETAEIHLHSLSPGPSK

SMILES | IC50 (Pim1 kinase) | IC50 [1] | IC50 (Pim3 kinase) | IC50 (Pim2 kinase) | EC50 (HEL 92.1.7 cells)
Nc1ncc(Br)nc1C(=O)Nc1[nH]c(=O)ncc1-c1ccccn1 [Example 145, 3-amino-6-bromo-N-(2-oxo-5-pyridin-2-yl-2,3-dihydro-pyrimidin-4-yl)pyrazine-2-carboxamide] | < 1 µM | > 25000 nM | < 1 µM | < 1 µM | 1 to 5 µM
Nc1nccnc1C(=O)Nc1[nH]c(=O)ncc1N1CCCC(C(F)(F)F)C1 (stereo not shown) [Example 146, 3-amino-N-{2-oxo-5-[3-(trifluoromethyl)piperidin-1-yl]-2,3-dihydropyrimidin-4-yl}-pyrazine-2-carboxamide] | < 1 µM | < 1000 nM | < 1 µM | < 1 µM | > 10 µM
Nc1ncc(Br)nc1C(=O)Nc1[nH]c(=O)ncc1N1CCC(F)CC1 [Example 150, 3-amino-6-bromo-N-[5-(4-fluoropiperidin-1-yl)-2-oxo-2,3-dihydropyrimidin-4-yl]pyrazine-2-carboxamide] | < 1 µM | 1000 to 10000 nM | < 1 µM | < 1 µM | 1 to 5 µM
Nc1ncc(Br)nc1C(=O)Nc1[nH]c(=O)ncc1N1CCC(F)(F)CC1 [Example 157, 3-amino-6-bromo-N-[5-(4,4-difluoropiperidin-1-yl)-2-oxo-2,3-dihydropyrimidin-4-yl]-pyrazine-2-carboxamide] | < 1 µM | > 25000 nM | < 1 µM | < 1 µM | > 10 µM
NCC(=O)N1CCN(c2ccncc2NC(=O)c2nc(Br)cnc2N)CC1 [Example 179, 3-amino-N-{4-[4-(aminoacetyl)-piperazin-1-yl]pyridin-3-yl}-6-bromopyrazine-2-carboxamide] | < 1 µM | < 1000 nM | < 1 µM | < 1 µM | 1 to 5 µM
NCC1CCCN(c2ccncc2NC(=O)c2nc(Br)cnc2N)C1 (stereo not shown) [Example 180, 3-amino-N-{4-[3-(amino-methyl)piperidin-1-yl]pyridin-3-yl}-6-bromopyrazine-2-carboxamide] | < 1 µM | < 1000 nM | < 1 µM | < 1 µM | < 1 µM
Nc1ncc(-c2ccccc2Cl)nc1C(=O)Nc1cnccc1N1CCCC(N)C1 (stereo not shown) [Example 346, 3-amino-6-(2-chloro-phenyl)-pyrazine-2-carboxylic acid (3-amino-3,4,5,6-tetrahydro-2H-[1,4′]bipyridinyl-3′-yl)-amide] | < 1 µM | < 1000 nM | < 1 µM | < 1 µM | < 1 µM
Nc1ncc(-c2ccccc2OC(F)(F)F)nc1C(=O)Nc1cnccc1N1CCCC(N)C1 (stereo not shown) [Example 347, 3-amino-6-(2-trifluoro-methoxy-phenyl)-pyrazine-2-carboxylic acid (3-amino-3,4,5,6-tetrahydro-2H-[1,4′]bi-pyridinyl-3′-yl)-amide] | < 1 µM | < 1000 nM | < 1 µM | < 1 µM | < 1 µM
COc1ccccc1-c1cnc(N)c(C(=O)Nc2cnccc2N2CCCC(N)C2)n1 (stereo not shown) [Example 349, 3-amino-6-(2-methoxy-phenyl)-pyrazine-2-carboxylic acid (3-amino-3,4,5,6-tetra-hydro-2H-[1,4′]bipyridinyl-3′-yl)-amide] | < 1 µM | 1000 to 10000 nM | < 1 µM | < 1 µM | < 1 µM
Nc1ncc(-c2ccccc2F)nc1C(=O)Nc1cnccc1N1CCCC(N)C1 (stereo not shown) [Example 350, 3-amino-6-(2-fluoro-phenyl)-pyrazine-2-carboxylic acid (3-amino-3,4,5,6-tetrahydro-2H-[1,4′]bipyridinyl-3′-yl)-amide] | < 1 µM | < 1000 nM | < 1 µM | < 1 µM | < 1 µM
Nc1ncc(-c2cccc(Cl)c2)nc1C(=O)Nc1cnccc1N1CCCC(N)C1 (stereo not shown) [Example 352, 3-amino-6-(3-chloro-phenyl)-pyrazine-2-carboxylic acid (3-amino-3,4,5,6-tetrahydro-2H-[1,4′]bipyridinyl-3′-yl)-amide] | < 1 µM | < 1000 nM | < 1 µM | < 1 µM | < 1 µM
Nc1ncc(-c2ccc(Cl)cc2)nc1C(=O)Nc1cnccc1N1CCCC(N)C1 (stereo not shown) [Example 353, 3-amino-6-(4-chloro-phenyl)-pyrazine-2-carboxylic acid (3-amino-3,4,5,6-tetrahydro-2H-[1,4′]bipyridinyl-3′-yl)-amide] | < 1 µM | < 1000 nM | < 1 µM | < 1 µM | < 1 µM
Nc1ncc(-c2cn[nH]c2)nc1C(=O)Nc1cnccc1N1CCCC(N)C1 (stereo not shown) [Example 355, 3-amino-6-(1H-pyrazol-4-yl)-pyrazine-2-carboxylic acid (3-amino-3,4,5,6-tetrahydro-2H-[1,4′]bipyridinyl-3′-yl)-amide] | < 1 µM | 1000 to 10000 nM | < 1 µM | < 1 µM | > 10 µM
Nc1ncc(-c2cccnc2)nc1C(=O)Nc1cnccc1N1CCCC(N)C1 (stereo not shown) [Example 356, 3-amino-6-pyridin-3-yl-pyrazine-2-carboxylic acid (3-amino-3,4,5,6-tetrahydro-2H-[1,4′]bipyridinyl-3′-yl)-amide] | < 1 µM | 1000 to 10000 nM | < 1 µM | < 1 µM | > 10 µM

More lines, main results first:

IC50 (Pim1 kinase) | IC50 [1] | IC50 (Pim3 kinase) | IC50 (Pim2 kinase) | SMILES | EC50 (HEL 92.1.7 cells)
< 1 µM | < 1000 nM | < 1 µM | < 1 µM | Nc1ncc(Br)nc1C(=O)Nc1[nH]c(=O)ncc1N1CCCC(C(F)(F)F)C1 (stereo not shown) [Example 147, 3-amino-6-bromo-N-{2-oxo-5-[3-(trifluoromethyl)piperidin-1-yl]-2,3-dihydropyrimidin-4-yl}-pyrazine-2-carboxamide] | 5 to 10 µM
< 1 µM | 10000 to 25000 nM | < 1 µM | < 1 µM | Nc1nc(N)c(C(=O)Nc2[nH]c(=O)ncc2N2CCCC(C(F)(F)F)C2)nc1Cl (stereo not shown) [Example 148, 3,5-diamino-6-chloro-N-{2-oxo-5-[3-(trifluoromethyl)piperidin-1-yl]-2,3-dihydropyrimidin-4-yl}pyrazine-2-carboxamide] | > 10 µM
< 1 µM | > 25000 nM | < 1 µM | < 1 µM | Nc1nc(N)c(C(=O)Nc2[nH]c(=O)ncc2N2CCC(F)CC2)nc1Cl [Example 151, 3,5-diamino-6-chloro-N-[5-(4-fluoropiperidin-1-yl)-2-oxo-2,3-dihydropyrimidin-4-yl]pyrazine-2-carboxamide] | > 10 µM
< 1 µM | 1000 to 10000 nM | < 1 µM | < 1 µM | Nc1ncc(Br)nc1C(=O)Nc1[nH]c(=O)ncc1N1CCCC(F)C1 (stereo not shown) [Example 155, 3-amino-6-bromo-N-[5-(3-fluoropiperidin-1-yl)-2-oxo-2,3-dihydropyrimidin-4-yl]pyrazine-2-carboxamide] | 5 to 10 µM
< 1 µM | > 25000 nM | < 1 µM | < 1 µM | Nc1nc(N)c(C(=O)Nc2[nH]c(=O)ncc2N2CCCC(F)C2)nc1Cl (stereo not shown) [Example 160, 3,5-diamino-6-chloro-N-[5-(3-fluoropiperidin-1-yl)-2-oxo-2,3-dihydropyrimidin-4-yl]pyrazine-2-carboxamide] | > 10 µM
< 1 µM | < 1000 nM | < 1 µM | < 1 µM | Nc1ncc(Br)nc1C(=O)Nc1[nH]c(=O)ncc1N1CCCC(N)C1 (stereo not shown) [Example 239, 3-amino-N-[5-(3-aminopiperidin-1-yl)-2-oxo-2,3-dihydro-pyrimidin-4-yl]-6-bromo-pyrazine-2-carboxamide] | > 10 µM
